Experimental data from patent publication US20190144912A1, “METHODS FOR IDENTIFYING NOVEL ANTIBIOTICS AND RELATED COMPOSITIONS” (priority 2015, published 2019).

How the values were obtained:
E. coli Lsp [1] = target: T1, E. coli Lsp (Escherichia coli, UniProt P00804, D131G/R160K); assay: biochemical; set-up: The full length E. coli Lsp clone was generated using colony PCR of E. coli K12; His-tag (pET19b leader); made in house; host or cells: E. coli BL21(DE3)pLysS
Procedure: Utilizing the purified and solubilized Lsp enzyme, we developed an in vitro high-throughput functional screening for the integral membrane protease Lsp. First, screening of the Maybridge HitFinder library (Thermo Fisher) was conducted in black polystyrene 384-well low volume plates (Greiner #788076) using a BioRAPTR reagent dispenser (Beckman Coulter). Purified Lsp was diluted to 500 nM in assay buffer (PBS, 5% glycerol, 0.5% DDM pH 7.4) and 10 µL of this stock was added into each well. Next, 100 nL of a 2 mM stock of library compounds were pinned into each well and plates were centrifuged briefly. Following incubation at room temperature for 30 minutes, 2.5 μL of 250 μM Lsp FRET substrate in 25% dimethyl sulfoxide (DMSO), 75% assay buffer was added to each well. The plates were spun down and incubated for 30 minutes at room temperature. The assay was quenched with 2.5 μL of a solution containing 500 mM zinc chloride in water, giving a final concentration of 83 mM. The concentration of Lsp, FRET substrate, and library compounds during the activity assay were 400 nM, 50 μM, and 16 μM, respectively.
Catalytic signal was defined as the full enzyme activity pinning DMSO only, and background signal was measured by adding substrate to assay buffer containing no Lsp.
We tested several fixed concentrations of BBS-20 against varying concentrations of Lsp FRET substrate to determine a mechanism of inhibition (FIG. 8).

E. coli Lsp [2] = target: T1, E. coli Lsp; settings: resynthesized compound
Procedure: Next, 50 nL of stock TSRI FL library compounds were pinned into each well to a final concentration of 8.4 μM and plates were centrifuged briefly. […] Fluorescence was measured on an EnVision pate reader (ex. 355 nm; em. 495 nm).
The 344 compounds were subjected to a dose-dependent titration assay with 10-point dose-response titrations (3-fold dilutions) in triplicate. LSP primary and pre-quench titration assays employed the same reagents, protocols, and detection systems as the secondary assays. […] Globomycin was included in the both titration assays as a control. For each test compound, percent activity was plotted against compound concentration. A four parameter equation describing a sigmoidal dose-response curve was then fitted with adjustable baseline using Assay Explorer software (Symyx Technologies Inc.). The reported IC50 values were generated from fitted curves by solving for the X-intercept value at the 50% activity level of the Y-intercept value.

Lsp = Lsp (Escherichia coli, UniProt P00804); settings: cited from earlier work
[3] = target: Lsp FRET peptide substrate Dabsyl-VTGC((R)-2,3-di(palmitoyloxy)-propyl)AKD(EDANS); assay: cell-based or functional assay
[4] = target: T2, Lsp FRET peptide substrate Dabsyl-VTGC((R)-2,3-di(palmitoyloxy)-propyl)AKD(EDANS)
T2 chain: VTGCAKD

T1 sequence (P00804 other isoform, or with tags, fused parts or gaps D131G/R160K): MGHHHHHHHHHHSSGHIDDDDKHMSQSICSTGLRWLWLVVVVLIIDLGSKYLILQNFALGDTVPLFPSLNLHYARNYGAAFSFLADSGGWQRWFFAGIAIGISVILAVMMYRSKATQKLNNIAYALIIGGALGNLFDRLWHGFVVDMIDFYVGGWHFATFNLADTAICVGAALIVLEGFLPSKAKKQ

CCN(CC)CCc1cn(CC(=O)NC[C@]2(C)CCC[C@]3(C)c4ccc(C(C)C)cc4CC[C@@H]23)nn1 [BBS-20]
IC50 (E. coli Lsp [1]): 15 ± 4 µM
identified as Lsp inhibitor in Sharpless library screen (E. coli Lsp [1]; 16 μM compound, 400 nM Lsp, 50 μM FRET substrate, triplicate): inhibitors
mode of inhibition (E. coli Lsp [1]; fixed concentrations of compound against varying concentrations of Lsp FRET substrate): noncompetitive

CCC(CC)c1nnc(NC(=O)c2cc(OC)c(OC)cc2[N+](=O)[O-])s1 [SR-01000270728-1]
EC50 (E. coli Lsp [2]): 2.2 µM

CCCCCCC1OC(=O)CNC(=O)C(C(C)O)NC(=O)C(CO)NC(=O)C(C(C)CC)NC(=O)C(CC(C)C)N(C)C(=O)C1C (stereo not shown) [globomycin]
mode of inhibition (Lsp): noncompetitively

E. coli lipoprotein signal peptidase (Lsp), full length, N-terminal His-tag fusion, DDM-solubilized and purified (from UniProt P00804 1-164) (enzyme)
substrate inhibition (Michaelis-Menten kinetics of peptide hydrolysis, FRET) [3]: > 100 µM

B1: E. coli lipoprotein signal peptidase (Lsp), full length, N-terminal His-tag fusion, DDM-solubilized and purified (protein)
chain: MSQSICSTGLRWLWLVVVVLIIDLGSKYLILQNFALGDTVPLFPSLNLHYARNYGAAFSFLADSGGWQRWFFAGIAIGISVILAVMMYRSKATQKLNNIAYALIIGGALGNLFDRLWHGFVVDMIDFYVGDWHFATFNLADTAICVGAALIVLEGFLPSRAKKQ
KM (Michaelis-Menten kinetics of peptide hydrolysis, FRET) [4]: KM=5 µM
